The assay deals with MAP Kinase Pathway (GST-MEK / GST-MAPK). Nature of the assay: Cascade Assay for Inhibitors of the MAP Kinase Pathway (APK Assay). The class given is biochemical. To be noted: 50 μM [γ32P]ATP; compounds assessed at 10 μM. The procedure: Cascade Assay for Inhibitors of the MAP Kinase Pathway (APK Assay)
Incorporation of ^32 P into myelin basic protein (MBP) is assayed in the presence of a glutathione; S-transferase fusion protein containing p44MAP kinase (GST-MAPK) and a glutathione; S-transferase fusion protein containing p45MEK (GST-MEK). The assay solution contains 20 mM HEPES, pH 7.4, 10 mM magnesium chloride, 1 mM manganese chloride, 1 mM EGTA, 50 μM [γ^32 P]ATP, 10 μg GST-MEK, 0.5 μg GST-MAPK and 40 μg MBP in a final volume of 100 μL. Reactions are stopped after 20 minutes by addition of trichloroacetic acid and filtered through a GF/C filter mat. ^32 P retained on the filter mat is determined using a 1205 betaplate. Compounds are assessed at 10 μM for ability to inhibit incorporation of ^32 P.
To ascertain whether compounds are inhibiting GST-MEK or GST MAPK, two additional protocols are employed. In the first protocol, compounds are added to tubes containing GST-MEK, followed by addition of GST-MAPK, MBP and [γ^32 P]ATP. In the second protocol, compounds are added to tubes containing both GST-MEK and GST-MAPK, followed by MBP and [γ^32 P]ATP.
Compounds that show activity in both protocols are scored as MAPK inhibitors, while compounds showing activity in only the first protocol are scored as MEK inhibitors.

Here are results for two compounds from patent US6150359A, “Naphthyridinones for inhibiting protein tyrosine kinase and cell cycle kinase mediated cellular proliferation” (Warner-Lambert Company, priority 2000, dated 2000).

Where only a bound is given, the exact number is not on record here.

By IC50 is commonly meant the concentration at which inhibition is half-maximal. Higher therefore signals weaker potency. Consider `CCN(CC)CCCCNc1cc2c(cn1)cc(-c1c(Cl)cccc1Cl)c(=O)n2C` [Example F, 3-(2,6-dichlorophenyl)-7-[4-(diethylamino)butylamino]-1-methyl-1H-[1,6]naphthyridin-2-one], for which the half-inhibitory concentration (IC50) is above 10 µM.

As for `CN1CCN(CCCNc2cc3c(cn2)cc(-c2c(Cl)cccc2Cl)c(=O)n3C)CC1` [Example H, 3-(2,6-dichlorophenyl)-1-methyl-7-[3-(4-methylpiperazin-1-yl)propylamino]-1H-[1,6]naphthyridin-2-one], the IC50 is 10 µM.
